# Data as given in PubChem BioAssay (NCI).
#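 Step 1: Grow cells in 96-well plates. Step 2: Expose to compound for 48 hours at 5 concentrations. Step 3: Interpolate endpoints linearly; if unreached, use highest concentration. TGI denotes the concentration required for complete inhibition of growth.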
# Legend:
# Assay in all cases: DTP human tumour cell line panel, 48 h
# A498 renal = tested on: A498 renal
# SK-MEL-5 melanoma = tested on: SK-MEL-5 melanoma
# SF-539 CNS = tested on: SF-539 CNS
# EKVX NSCLC = tested on: EKVX NSCLC
# SNB-75 CNS = tested on: SNB-75 CNS
# U251 CNS = tested on: U251 CNS
# TK-10 renal = tested on: TK-10 renal
# SK-MEL-28 melanoma = tested on: SK-MEL-28 melanoma
SMILES,TGI (A498 renal),TGI (SK-MEL-5 melanoma),TGI (SF-539 CNS),TGI (EKVX NSCLC),TGI (SNB-75 CNS),TGI (U251 CNS),TGI (TK-10 renal),TGI (SK-MEL-28 melanoma)
COC(=O)C1CCC2(CC1)NC(=O)NC2=O (stereo not drawn),> 100 µM,> 100 µM,> 100 µM,> 100 µM,> 100 µM,> 100 µM,> 100 µM,> 100 µM
Cc1nn(C(=O)CC(=O)Nc2ccccc2Cl)c(C)c1N=Nc1ccccc1Cl,> 100 µM,> 100 µM,> 100 µM,> 100 µM,> 100 µM,> 100 µM,> 100 µM,> 100 µM
O=C(Nc1cccc(Cl)c1)c1cc2cc(N=Nc3ccc(Br)cc3)ccc2oc1=O,> 100 µM,> 100 µM,> 100 µM,> 100 µM,> 100 µM,> 100 µM,> 100 µM,> 100 µM
O=C1OC2C(O)COC2(OCc2c[nH]c3ccccc23)C1O (stereo not drawn) (tested in a mixture with another compound),> 100 µM,> 100 µM,> 100 µM,> 100 µM,> 100 µM,> 100 µM,> 100 µM,
COc1ccc2nccc(C3OC(=O)N4CCC(=O)CC34)c2c1 (stereo not drawn),> 100 µM,> 100 µM,> 100 µM,> 100 µM,,> 100 µM,> 100 µM,> 100 µM
Cc1cn2cc(-c3ccncc3)nc2s1,> 100 µM,> 100 µM,> 100 µM,> 100 µM,> 100 µM,> 100 µM,> 100 µM,> 100 µM
COc1ccc(/C=C(\NC(=O)c2ccccc2)c2nc3ccccc3[nH]2)cc1,> 100 µM,29 µM,> 100 µM,> 100 µM,99.4 µM,> 100 µM,,37.5 µM
CCc1cccc(C(C)C)c1C1C(=O)C(=O)N(c2nc3ccccc3s2)C(=O)C1=O,> 100 µM,> 100 µM,> 100 µM,> 100 µM,> 100 µM,> 100 µM,> 100 µM,> 100 µM
O=S(O)CCCSSCCCCSSCCCS(=O)O,> 100 µM,> 100 µM,> 100 µM,> 100 µM,> 100 µM,> 100 µM,> 100 µM,> 100 µM
O=C1c2ccccc2CC1C1(O)C(=O)Nc2c(Cl)cc(Cl)cc21 (stereo not drawn),,> 100 µM,,> 100 µM,> 100 µM,> 100 µM,> 100 µM,> 100 µM
CCN(CC)CC(C(=O)Nc1c(C)cccc1C)/C(C)=N/NC(N)=S (stereo not drawn),> 100 µM,> 100 µM,> 100 µM,> 100 µM,> 100 µM,> 100 µM,> 100 µM,> 100 µM
O=c1c2ccccc2nc(-c2ccccc2Cl)n1NC1OC(CO)C(O)C(O)C1O (stereo not drawn),> 100 µM,> 100 µM,> 100 µM,> 100 µM,> 100 µM,> 100 µM,> 100 µM,> 100 µM
COc1cc(C2C(C(=O)Nc3ccc(Cl)c(Cl)c3)=C(C)NC(C)=C2C(=O)Nc2ccc(Cl)c(Cl)c2)ccc1O,28.5 µM,25.5 µM,24.9 µM,28.1 µM,34.5 µM,34.7 µM,42.6 µM,27.3 µM
CC1CCCC2(O1)OC1CC(=O)OC1C1=C2C(=O)c2ccccc2C1=O (stereo not drawn),33.8 µM,4.14 µM,19.9 µM,14.2 µM,23.7 µM,32.5 µM,21 µM,4.75 µM
O=[N+]([O-])c1ccc(-c2ccc(C3=Nn4c(nnc4-c4ccc(Cl)cc4)SC3)o2)cc1,> 100 µM,> 100 µM,> 100 µM,> 100 µM,> 65.3 µM,> 70.7 µM,53.4 µM,> 100 µM
S=C(N/N=C/c1ccccc1)NC1CC(c2ccccc2)Oc2ccccc21 (stereo not drawn),,65.8 µM,> 100 µM,> 100 µM,31.3 µM,> 100 µM,,> 100 µM
COCC(O)CN1C(N)=NC(O)C1O (stereo not drawn),,> 100 µM,> 100 µM,> 100 µM,> 100 µM,> 100 µM,> 100 µM,> 100 µM
Cc1nc2c(=O)n(C)c(=O)nc-2n(-c2ccc(Cl)cc2)c1C,> 100 µM,> 100 µM,> 100 µM,> 100 µM,> 100 µM,> 100 µM,> 100 µM,> 100 µM
O=C1[C@@H]2C3C=CC([C@H]4C(=O)N(CO)C(=O)[C@@H]34)[C@@H]2C(=O)N1CO,> 100 µM,> 100 µM,> 100 µM,> 100 µM,> 100 µM,> 100 µM,> 100 µM,> 100 µM
Cc1ccc(S(=O)(=O)NC2(C=O)CCC(C(C)(C)C)CC2)cc1 (stereo not drawn),> 100 µM,47.2 µM,> 100 µM,> 100 µM,> 100 µM,> 100 µM,> 100 µM,
CCCCCC1C2C(=O)NC(=O)C1C(=O)NC2=O (stereo not drawn),> 100 µM,> 100 µM,> 100 µM,> 100 µM,> 100 µM,,> 100 µM,> 100 µM
